US8877778B2, “Benzofurane compounds” (Hoffmann-La Roche Inc., priority 2010, dated 2014)

Tests used:
human D3 receptor = human D3 receptor (Homo sapiens (Human), UniProt P35462); test: Radioligand binding ([3H]-spiperone) to cloned receptors expressed in HEK-293 EBNA cells; conditions: HEK293 EBNA cell membranes expressing human D3
Outline: (§1)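 Membranes from transiently transfected HEK293 EBNA cells incubated 1 h at RT with ten compound concentrations (10 μM–0.1 nM). D2/D3: [3H]-spiperone ~0.7/0.5 nM, Tris–NaCl–Mg/Ca buffer pH 7.4; 5-HT2A: [3H]-ketanserin 1.1 nM, Tris–MgCl2–EGTA pH 7.4.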

human D2 receptor = human D2 receptor (Homo sapiens (Human), UniProt P14416); test: as above; conditions: HEK293 EBNA cell membranes expressing human D2
Outline: as §1

human 5-HT2A receptor = human 5-HT2A receptor (Homo sapiens (Human), UniProt P28223); test: Radioligand binding ([3H]-ketanserin) to cloned receptors expressed in HEK-293 EBNA cells; conditions: HEK293 EBNA cell membranes expressing human 5-HT2A
Outline: as §1

Chain of human D3 receptor (P35462 whole entry): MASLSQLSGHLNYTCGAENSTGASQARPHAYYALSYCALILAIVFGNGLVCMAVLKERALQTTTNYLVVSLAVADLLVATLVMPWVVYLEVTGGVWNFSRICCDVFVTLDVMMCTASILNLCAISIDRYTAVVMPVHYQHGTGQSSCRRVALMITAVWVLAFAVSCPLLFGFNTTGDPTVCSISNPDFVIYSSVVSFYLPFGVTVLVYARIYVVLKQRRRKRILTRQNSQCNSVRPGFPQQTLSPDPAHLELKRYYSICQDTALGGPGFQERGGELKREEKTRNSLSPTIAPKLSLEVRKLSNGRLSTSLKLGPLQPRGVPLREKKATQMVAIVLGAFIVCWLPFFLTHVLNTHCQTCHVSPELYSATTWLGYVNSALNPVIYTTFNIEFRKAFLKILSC
Chain of human D2 receptor (P14416 whole entry): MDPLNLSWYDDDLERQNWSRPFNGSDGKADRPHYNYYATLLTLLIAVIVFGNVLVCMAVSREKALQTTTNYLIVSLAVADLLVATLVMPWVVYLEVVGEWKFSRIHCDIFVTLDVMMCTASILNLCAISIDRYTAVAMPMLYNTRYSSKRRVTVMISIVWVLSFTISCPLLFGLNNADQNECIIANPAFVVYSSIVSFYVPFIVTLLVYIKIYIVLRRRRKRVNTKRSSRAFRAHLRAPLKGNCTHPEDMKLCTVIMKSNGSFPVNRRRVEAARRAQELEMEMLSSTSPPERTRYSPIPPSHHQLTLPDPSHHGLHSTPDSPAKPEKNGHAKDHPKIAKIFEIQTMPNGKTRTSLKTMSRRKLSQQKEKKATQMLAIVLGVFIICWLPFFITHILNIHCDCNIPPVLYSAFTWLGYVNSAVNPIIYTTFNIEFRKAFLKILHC
Chain of human 5-HT2A receptor (P28223 whole entry): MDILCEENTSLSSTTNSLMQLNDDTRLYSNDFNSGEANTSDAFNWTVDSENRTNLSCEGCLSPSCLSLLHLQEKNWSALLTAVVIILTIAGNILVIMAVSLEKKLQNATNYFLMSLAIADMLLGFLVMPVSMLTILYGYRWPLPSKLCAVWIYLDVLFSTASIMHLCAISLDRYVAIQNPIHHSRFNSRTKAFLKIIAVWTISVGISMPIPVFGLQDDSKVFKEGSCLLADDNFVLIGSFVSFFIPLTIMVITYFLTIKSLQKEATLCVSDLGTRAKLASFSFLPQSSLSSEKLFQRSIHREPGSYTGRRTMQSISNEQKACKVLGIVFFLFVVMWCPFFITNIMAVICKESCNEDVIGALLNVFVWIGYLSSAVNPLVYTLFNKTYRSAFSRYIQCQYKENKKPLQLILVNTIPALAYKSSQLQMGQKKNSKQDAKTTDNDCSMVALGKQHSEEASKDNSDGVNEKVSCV

Structure (SMILES)	melting point	Ki (human D3 receptor)	Ki (human D2 receptor)	Ki (human 5-HT2A receptor)
CS(=O)(=O)CC(=O)N[C@H]1CC[C@H](CCN2CCC(c3cccc4occc34)CC2)CC1 [Example 11, trans-N-{4-[2-(4-Benzofuran-4-yl-piperidin-1-yl)-ethyl]-cyclohexyl}-2-methanesulfonyl-acetamide]	201 °C	0.0023 µM	0.154 µM	0.0053 µM
COCCC(=O)N[C@H]1CC[C@H](CCN2CCC(c3cccc4c3CCO4)CC2)CC1 [Example 6, trans-N-(4-{2-[4-(2,3-Dihydro-benzofuran-4-yl)-piperidin-1-yl]-ethyl}-cyclohexyl)-3-methoxy-propionamide]	182 °C	0.0066 µM	0.509 µM	0.0387 µM
CC(C)=CC(=O)N[C@H]1CC[C@H](CCN2CCC(c3cccc4c3CCO4)CC2)CC1 [Example 84, 3-Methyl-but-2-enoic acid trans-(4-{2-[4-(2,3-dihydro-benzofuran-4-yl)-piperidin-1-yl]-ethyl}-cyclohexyl)-amide]	177 °C	0.00636 µM	0.0739 µM	0.0598 µM
CN(C)C(=O)CCC(=O)N[C@H]1CC[C@H](CCN2CCC(c3cccc4c3CCO4)CC2)CC1 [Example 63, trans-N-(4-{2-[4-(2,3-Dihydro-benzofuran-4-yl)-piperidin-1-yl]ethyl}-cyclohexyl)-N′,N′-dimethyl-succinamide]	205 °C	0.0155 µM	1.06 µM	0.0896 µM
CS(=O)(=O)c1ccc(C(=O)N[C@H]2CC[C@H](CCN3CCC(c4cccc5c4CCO5)CC3)CC2)s1 [Example 70, 5-Methanesulfonyl-thiophene-2-carboxylic acid trans-(4-{2-[4-(2,3-dihydro-benzofuran-4-yl)-piperidin-1-yl]-ethyl}-cyclohexyl)-amide]	255 °C	0.00663 µM	0.195 µM	0.0314 µM
O=C(N[C@H]1CC[C@H](CCN2CCC(c3cccc4c3CCO4)CC2)CC1)c1ccc2c(c1)OCO2 [Example 79, Benzo[1,3]dioxole-5-carboxylic acid trans-(4-{2-[4-(2,3-dihydro-benzofuran-4-yl)-piperidin-1-yl]-ethyl}-cyclohexyl)-amide]	233 °C	0.0035 µM	0.809 µM	0.023 µM
CS(=O)(=O)N[C@H]1CC[C@H](CCN2CCC(c3cccc4c3CCO4)CC2)CC1 [Example 47, trans-N-(4-{2-[4-(2,3-Dihydro-benzofuran-4-yl)-piperidin-1-yl]-ethyl}-cyclohexyl)-methanesulfonamide]	152 °C	0.0101 µM	0.328 µM	0.0352 µM
O=C(N[C@H]1CC[C@H](CCN2CCC(c3cccc4c3CCO4)CC2)CC1)c1ccc(N2CCOCC2)nc1 [Example 46, trans-N-(4-{2-[4-(2,3-Dihydro-benzofuran-4-yl)-piperidin-1-yl]-ethyl}-cyclohexyl)-6-morpholin-4-yl-nicotinamide]	228 °C	0.0163 µM	0.919 µM	0.0276 µM
CN(C)S(=O)(=O)N[C@H]1CC[C@H](CCN2CCC(c3cccc4c3CCO4)CC2)CC1 [Example 51, N′-(trans-4-{2-[4-(2,3-Dihydro-benzofuran-4-yl)-piperidin-1-yl]-ethyl}-cyclohexyl)-N,N-dimethylsulfamide]	122 °C	0.0099 µM	0.251 µM	0.0195 µM
O=C(CC1CCOCC1)N[C@H]1CC[C@H](CCN2CCC(c3cccc4c3CCO4)CC2)CC1 [Example 8, trans-N-(4-{2-[4-(2,3-Dihydro-benzofuran-4-yl)-piperidin-1-yl]-ethyl}-cyclohexyl)-2-(tetrahydro-pyran-4-yl)-acetamide]	191 °C	0.0104 µM	0.65 µM	0.0386 µM
O=C(C[C@@H](O)C(F)(F)F)N[C@H]1CC[C@H](CCN2CCC(c3cccc4c3CCO4)CC2)CC1 [Example 36, trans-(R)—N-(4-{2-[4-(2,3-Dihydro-benzofuran-4-yl)-piperidin-1-yl]-ethyl}-cyclohexyl)-4,4,4-trifluoro-3-hydroxy-butyramide]	189 °C	0.0065 µM	0.239 µM	0.0534 µM
